The values below come from US12209079B2 (GENERAL INCORPORATED ASSOCIATION PHARMA VALLEY PROJECT …, priority 2017, dated 2025).

One experiment has as its target T1, TDO in A172 cells (Homo sapiens, UniProt P48775).
T1 construct: endogenous in cells; host or cells: A172 cells
In words: TDO cell-based assay, kynurenine production in A172 cells. The following applies: A 172; final concentration of the compound 10 μM; rate relative to culture without compound. In a few lines:
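A172 cells were preincubated with compound for 1 h, then given L-tryptophan (final 524 μM) for 24 h at 37 °C. Kynurenine was read at 460 nm after p-dimethylbenzaldehyde/TCA reagent, background-subtracted, and expressed as % of no-compound production.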

In experiment [1] the target is rhIDO (recombinant human IDO) (Homo sapiens, UniProt P14902). In words: Enzyme assay using rhIDO (rate of kynurenine production). Type of experiment: biochemical. The following applies: 2 h; final concentration of the compound 10 μM; rate relative to reaction without compound; read-out: rhIDO-mediated kynurenine production. In short, it runs like this: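 rhIDO preincubated with compound 10 min at 37 °C in phosphate buffer with ascorbate, methylene blue and catalase; started with 2 mM tryptophan solution (stock) and run 120 min at 37 °C. Stopped with TCA and heated to convert N-formylkynurenine; kynurenine read at 490 nm after p-dimethylbenzaldehyde, background-subtracted, as % of no-compound control.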
Sequence of rhIDO (recombinant human IDO) (P14902 whole entry): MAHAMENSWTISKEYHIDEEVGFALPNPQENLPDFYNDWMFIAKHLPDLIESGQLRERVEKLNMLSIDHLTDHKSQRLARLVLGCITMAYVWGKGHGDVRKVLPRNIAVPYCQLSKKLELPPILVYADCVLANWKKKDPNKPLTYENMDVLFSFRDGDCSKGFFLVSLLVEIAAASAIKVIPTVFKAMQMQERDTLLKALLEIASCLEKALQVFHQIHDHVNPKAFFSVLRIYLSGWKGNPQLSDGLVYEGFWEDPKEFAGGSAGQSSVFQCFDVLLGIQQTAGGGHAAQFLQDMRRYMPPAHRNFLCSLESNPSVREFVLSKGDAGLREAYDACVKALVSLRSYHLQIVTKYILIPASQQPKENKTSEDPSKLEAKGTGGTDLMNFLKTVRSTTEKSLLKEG

For experiment [2], the target named is rhTDO (recombinant human TDO) (Homo sapiens, UniProt P48775). Briefly: Enzyme assay using rhTDO (rate of kynurenine production). The format is biochemical. The following applies: 2 h; final concentration of the compound 10 μM; rate relative to reaction without compound; read-out: rhTDO-mediated kynurenine production. In short, it runs like this: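 Kynurenine output, as percent of untreated control after background subtraction, read at 490 nm with p-dimethylbenzaldehyde following TCA quench and 15 min heating at 50 °C. Reaction: rhTDO with compound, 10 min preincubation then 120 min at 37 °C, started by 20 mM tryptophan stock, in phosphate/ascorbate/methylene blue/catalase.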
Sequence of rhTDO (recombinant human TDO) (P48775 whole entry): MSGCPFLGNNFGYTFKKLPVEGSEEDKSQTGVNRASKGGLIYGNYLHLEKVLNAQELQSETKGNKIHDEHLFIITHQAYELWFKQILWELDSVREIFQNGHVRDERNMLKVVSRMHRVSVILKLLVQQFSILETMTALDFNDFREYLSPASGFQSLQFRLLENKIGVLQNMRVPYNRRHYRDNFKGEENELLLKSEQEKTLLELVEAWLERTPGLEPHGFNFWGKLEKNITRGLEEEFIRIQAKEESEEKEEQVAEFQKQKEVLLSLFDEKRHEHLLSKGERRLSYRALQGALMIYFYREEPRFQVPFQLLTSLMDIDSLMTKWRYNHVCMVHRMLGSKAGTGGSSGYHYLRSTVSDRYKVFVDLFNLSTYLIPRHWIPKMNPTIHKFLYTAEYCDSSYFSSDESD

T1 sequence (P48775 whole entry): as above

`Br.Br.N=C(N)SCc1ccc(Br)cc1CSC(=N)N` [Compound 10, (4-bromo-1,2-phenylene)bis(methylene) dicarbamimidothioate dihydrobromide]: the remaining activity at 10 µM on TDO in A172 cells came to 2%; in experiment [1], 1%; in experiment [2], 3%.
The like results for `Br.Br.N=C(N)SCc1ccc(F)cc1CSC(=N)N` [Compound 2, (4-fluoro-1,2-phenylene)bis(methylene) dicarbamimidothioate dihydrobromide] were, in that order, 7%, 11% and 6%.
Consider `N/C(=N\c1ccc(Br)cc1)SCc1ccc(Br)cc1CS/C(N)=N/c1ccc(Br)cc1` [Compound 49, (4-Bromo-1,2-phenylene)bis(methylene) (E,E)-bis(N′-(4-bromophenyl)carbamimidothioate)], for which the remaining activity at 10 µM at TDO in A172 cells worked out at 8%; in experiment [1] it was 1%; in experiment [2], 15%.
For `Br.Br.N/C(=N\c1ccc(F)cc1F)SCc1ccccc1CS/C(N)=N/c1ccc(F)cc1F` [Compound 95, 1,2-Phenylenebis(methylene) (E,E)-bis(N-(2,4-difluorophenyl)carbamimidothioate)dihydrobromide], in that order: -7%, 3% and 6%.
In the case of `Br.Br.N=C(N)SCc1ccsc1CSC(=N)N` [Compound 31, thiophene-2,3-diylbis(methylene) dicarbamimidothioate dihydrobromide], the remaining activity at 10 µM at TDO in A172 cells was 20%; in experiment [1] it was 11%; in experiment [2], 17%.
Take `Br.Br.N=C(N)SCc1ccc(Cl)cc1CSC(=N)N` [Compound 7, (4-chloro-1,2-phenylene)bis(methylene) dicarbamimidothioate dihydrobromide]: the remaining activity at 10 µM is -1% at TDO in A172 cells, 10% in experiment [1] and 3% in experiment [2].
The like results for `Cl.Cl.N=C(N)SCc1ccccc1CSC(=N)N` [Compound 1, 1,2-phenylenebis(methylene) dicarbamimidothioate dihydrochloride] were, in that order, -3%, 26% and 13%.
The like results for `Br.N#Cc1ccc(CNC(=O)c2cc(Br)ccc2CSC(=N)N)cc1` [Compound 103, 4-Bromo-2-((4-cyanobenzyl)carbamoyl)benzyl carbamimidothioate hydrobromide] were, in that order, 18%, 0% and 22%.
Turning to `Clc1cc(CSC2=NCN(CC3CCCCC3)CN2)c(CSC2=NCN(CC3CCCCC3)CN2)cc1Cl` [Compound 50, 6,6′-(((4,5-Dichloro-1,2-phenylene)bis(methylene))bis(sulfanediyl))bis(3-(cyclohexylmethyl)-1,2,3,4-tetrahydro-1,3,5-triazine)], the remaining activity at 10 µM is 4% on TDO in A172 cells, 9% in experiment [1] and 4% in experiment [2].
For `c1ccc(CSC2=NCN(CC3CCCCC3)CN2)c(CSC2=NCN(CC3CCCCC3)CN2)c1` [Compound 29, 1,2-bis(((5-(cyclohexylmethyl)-1,4,5,6-tetrahydro-1,3,5-triazin-2-yl)thio)methyl)benzene], the results for the remaining activity at 10 µM (at TDO in A172 cells; in experiment [1]; in experiment [2]) were 0%, 23% and 15%, respectively.
As for `Clc1cc(CSC2=NCN(CCc3ccccc3)CN2)c(CSC2=NCN(CCc3ccccc3)CN2)cc1Cl` [Compound 37, 6,6′-(((4,5-Dichloro-1,2-phenylene)bis(methylene))bis(sulfanediyl))bis(3-phenethyl-1,2,3,4-tetrahydro-1,3,5-triazine)], the remaining activity at 10 µM at TDO in A172 cells is -9%; in experiment [1] it was less than 9%; in experiment [2], less than 7%.
`Br.Br.N=C(N)SCc1cscc1CSC(=N)N` [Compound 15, thiophene-3,4-diylbis(methylene) dicarbamimidothioate dihydrobromide]: the remaining activity at 10 µM at TDO in A172 cells was 7%; in experiment [1], 22%; in experiment [2], 12%.
The like results for `Brc1ccc(CSC2=NCN(CC3CCCCC3)CN2)c(CSC2=NCN(CC3CCCCC3)CN2)c1` [Compound 52, 6,6′-(((4-Bromo-1,2-phenylene)bis(methylene))bis(sulfanediyl))bis(3-(cyclohexylmethyl)-1,2,3,4-tetrahydro-1,3,5-triazine)] were, in that order, 5%, 14% and 5%.
The like results for `Br.N#Cc1ccc(CNC(=O)c2ccc(Br)cc2CSC(=N)N)cc1` [Compound 76, 5-Bromo-2-((4-cyanobenzyl)carbamoyl)benzyl carbamimidothioate hydrobromide] were, in that order, 24%, 78% and 15%.
For `Cl.Cl.c1ccc(CCN2CN=C(SCc3cscc3CSC3=NCN(CCc4ccccc4)CN3)NC2)cc1` [Compound 33, 3,4-Bis{[(5-phenethyl-1,4,5,6-tetrahydro-1,3,5-triazin-2-yl)thio]methyl}thiophene dihydrochloride], in that order: 4%, 37% and 21%.
